From patent US8629116B2, “Method for inducing a TRIF-bias” (priority 2008, dated 2014)
“Also recorded” adds a separate entry of the source.

Experiments:
human TLR4, MD-2, CD14 = target: T1, human TLR4, MD-2, CD14 (Homo sapiens, UniProt O00206+Q9Y6Y9); assay: NF-κB reporter activity in HEK293 cells transfected with human TLR4/MD-2/CD14; type: cell-based; conditions: HEK293 huTLR4/huMD-2/huCD14, NFκB reporter plasmid
T1 construct: host or cells: HEK293-hTLR4/hMD2/hCD14
Protocol: HEK293-hTLR4/hMD2/hCD14 cells are seeded in 12-well plates (4×10^5 cells/well) and are cultured until 40-60% confluent (2-3 days). The cells are transfected for 24 hours with 100 ng of NF-κB reporter construct expressing secreted human embryonic alkaline phosphatase under the control of an engineered ELAM promoter with five NF-κB sites (pNiFty2-SEA-InvivoGen; San Diego, Calif.) and a transfection control plasmid constitutively expressing a thymidine kinase promoter driven luciferase (Promega). […] After transfection, cells are stimulated for 14 h with TLR4 agonists, and the cleared supernatant is assayed for SEAP activity (SEAP Reporter Assay Kit-InvivoGen) to quantify NF-κB activation and luciferase activity (Promega) to normalize for transfection efficiency following supplied protocols.

PBMCs from BALB/c mice = assay: Cytokine induction in PBMCs from BALB/c mice; type: cell-based, mouse; conditions: CRX-527 versus CRX-547; experiment performed once
Protocol: To determine whether PBMCs from mouse blood have similar profiles of MyD88 cytokines after CRX-527 or CRX-547 treatment, commercially available blood from BALB/c mice is tested with CRX-527 or CRX-547. (FIG. 24), Levels appear to be similar between the two groups tested.

[1] = Rabbit toxicology study by IM route; type: in vivo; conditions: for hematology: granulocytosis: day 9 (2 days post-2°), resolves by day 21; for gross pathology: white discoloration of muscle along needle track and at site of injection: low dose (5 μg); for overall impression of toxicity: n=3 rabbits/group
Protocol: Groups of three rabbits (NZW—Western Oregon Rabbit Company, Philomath, Oreg.) are vaccinated with 1 mL diluted AGP, or MPL control, IM on days 0, 7 and 14. Two doses of AGP are evaluated. All animals are monitored for body weight, temperature, clinical condition and draize score. Animals are sacrificed one week post final administration. Blood is collected pretreatment, two days after the 2nd vaccination and upon sacrifice for hematology and clinical chemistry. Histopathology of injection sites and major organs are conducted according to standard practices. All animals are used in accordance with guidelines established by the Public Health Service and the Institutional Animal Care and Use Committee at GlaxoSmithKline Biologicals, Hamilton, Mont.
Toxicity of CRX-527, 524, 547 and compound 1 is evaluated in rabbits receiving AGP only by the intramuscular (IM) route. Groups of three rabbits are vaccinated with 1 mL diluted AGP, or MPL control, IM on days 0, 7 and 14. Two doses of AGP are evaluated: high (25 μg) and low (5 μg). All animals are monitored for body weight, temperature, clinical condition and draize score. Animals are sacrificed one week post final administration. Blood is collected pretreatment, two days after the 2nd vaccination and upon sacrifice for hematology and clinical chemistry. Histopathology of injection sites and major organs are conducted.

[2] = system: human PBMC-derived monocytes; assay: Cytokine/chemokine gene expression (qPCR time course) in human PBMC-derived monocytes; type: cell-based; conditions: for time of highest IFNβ gene induction: qPCR time course
Source text: Initial experiments include time course analysis of MyD88- and TRIF-dependent cytokine gene induction using qPCR.

MM6 cells = assay: Western blot of MM6 cells (IκBα, IRAK4, p38, IRF3); type: cell-based, human; conditions: for IRAK-4 / total IκBα / TRIF-mediated signaling proteins (phospho-p38, total p38, IRF3, phospho-IRF3): 10 ng/ml; for TRIF-mediated signaling proteins (phospho-p38, total p38, IRF3, phospho-IRF3): difference between the two AGPs
Protocol: For Western blot and phospho-Western blot protein analysis, cells are lysed with Cell Lysis Buffer (Cell Signaling Technology, Danvers, Mass.) with Protease Inhibitor Cocktail (Sigma, St. Louis Mo.). Western Blot on PVDF membranes (Millipore) is performed using standard methods. Bands are detected with ECL Advance Western Blot kit (GE Healthcare, Piscataway, N.J.). Secondary Anti-Rabbit HRP antibody is obtainable from KPL, (Gaithersburg, Md.). Anti-βactin, anti-IRF-3, anti-phospho-IRF-3 (Ser396) and anti-IRAK1 antibodies are obtained from Cell Signaling Technology (Danvers, Mass.).
The role of MAPK signaling molecules in MyD88 versus TRIF signaling after TLR4 ligation is complicated because p38 is implicated in both pathways, however a role for p38 phosphorylation as an indicator of the TRIF pathway is indicated in the literature. […] To determine whether the phosphorylation state of p38 is different after stimulation with CRX-527 versus CRX-547, western blot analysis is performed on lysates from MM6 cells.
MAPK pathways and downstream transcription factors are differentially regulated by TLR agonists. Degradation of IRAK4 and IκBα are indicative of MyD88 after TLR4 signaling (Hatao et al. 260-64; Neumann et al. 1089-94), while TRIF-mediated TLR4 signaling results in IRF3 activation (Yamamoto et al. 6668-72; Yamamoto et al. 640-43). MM6 cells are stimulated with either CRX-547 or CRX-527 (10 ng/ml) for the indicated time. Cellular lysates are collected and Western Blot analysis of the MyD88 pathway proteins, Phospho-IκBα, total IκBα, IRAK4, and TRIF pathway proteins, phospho-p38, total IRF3 and phospho IRF3 is performed using βactin as the loading control.

THP-1 cells = assay: Cytokine induction with dominant negative MyD88 or TRIF constructs in THP-1 macrophages; type: cell-based, human; conditions: for induction of TRIF-dependent cytokines when TRIF is knocked down: dominant negative TRIF construct
Protocol: THP-1 cells are seeded in 12-well plates (5×10^5 cells/well) and incubated in 0.5 mL RPMI 1640 (ATCC) with 100 U/mL penicillin/100 ug/mL streptomycin (Sigma) with 20 ng/mL phorbol mystyric acid (PMA) (InvivoGen) for differentiation into macrophages. After differentiation of the THP-1, the media is changed to THP-1 media with 5 ng/mL PMA and the cells are transiently transfected with 0.5 μg/well of the pDeNy-hMyD88/LacZ, pDeNy-TRIF/LacZ, or pUNO-mcs (control)/LacZ plasmids and Fugene 6 transfection reagent for 48 h. Media is exchanged for fresh media and the cells are then stimulated with the indicated concentrations of TLR4 agonists for 14 hours. Harvested supernatants are assayed for cytokine levels by multiplex sandwich ELISA (R&D Systems) with the luminex platform. Control wells are assayed for transfection efficiency using the Invivogen LacZ Quantitation Kit.

[3] = target: T2, human TLR4 and murine MD-2 (UniProt O00206+Q9JHF9); assay: NFκB promoter activity in HEK293 cells with chimeric human TLR4 and murine MD-2; type: cell-based, human/mouse; conditions: HEK293 huTLR4/muMD-2
T2 construct: expressed in transfected cells; host or cells: HEK293

[4] = system: RAW264.7 (macrophage) cells; assay: TNFα and IP-10 production in RAW264.7 cells; type: cell-based, mouse
Source text: To better compare and confirm the similarity of potency between the L and D isomers in murine cells, RAW264.7 (macrophage) cells are stimulated over a wider dose range with CRX-527, CRX-547, compounds 1a and 1b and the supernatants assayed for MyD88 (TNFα) and TRIF-dependent (IP-10) production.
Since MyD88-dependent signaling after TLR4 stimulation should be earlier than TRIF dependent signaling, and because both MyD88 and TRIF can induce downstream TNFα production due to activation of the NFκB pathway, an earlier timepoint is tested for cytokine production after stimulation with the L and D isomers.

[5] = system: human PBMC-derived macrophages; assay: Cytokine/chemokine induction in the presence of the endocytosis inhibitor Dynasore; type: cell-based; conditions: with Dynasore; for MyD88-dependent MIP-1α induction under inhibition of endocytosis: relative to non-treated cells
[6] = dominant negative MyD88 construct

T2 sequence (O00206 24-839): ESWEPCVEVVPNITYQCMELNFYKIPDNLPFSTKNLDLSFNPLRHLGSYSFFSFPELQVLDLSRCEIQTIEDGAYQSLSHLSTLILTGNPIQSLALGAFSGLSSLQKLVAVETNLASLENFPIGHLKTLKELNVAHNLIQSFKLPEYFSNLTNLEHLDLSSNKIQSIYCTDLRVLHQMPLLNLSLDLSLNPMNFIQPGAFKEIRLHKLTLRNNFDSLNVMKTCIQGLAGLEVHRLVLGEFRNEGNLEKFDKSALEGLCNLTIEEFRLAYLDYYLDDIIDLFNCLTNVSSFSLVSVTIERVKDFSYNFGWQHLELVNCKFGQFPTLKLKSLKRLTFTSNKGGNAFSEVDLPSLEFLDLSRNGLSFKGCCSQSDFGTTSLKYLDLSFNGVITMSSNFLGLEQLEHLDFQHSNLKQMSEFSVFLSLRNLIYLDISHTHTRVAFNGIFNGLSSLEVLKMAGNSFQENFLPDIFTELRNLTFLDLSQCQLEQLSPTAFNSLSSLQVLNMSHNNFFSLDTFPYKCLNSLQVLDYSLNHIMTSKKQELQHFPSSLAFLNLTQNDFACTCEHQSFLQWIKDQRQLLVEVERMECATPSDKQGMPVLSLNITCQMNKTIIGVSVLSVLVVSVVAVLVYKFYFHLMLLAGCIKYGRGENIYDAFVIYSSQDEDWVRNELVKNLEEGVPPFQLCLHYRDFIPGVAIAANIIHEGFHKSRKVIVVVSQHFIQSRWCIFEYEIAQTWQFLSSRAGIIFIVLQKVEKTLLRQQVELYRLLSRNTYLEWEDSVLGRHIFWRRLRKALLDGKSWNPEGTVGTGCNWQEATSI
T2 sequence (Q9JHF9 19-160): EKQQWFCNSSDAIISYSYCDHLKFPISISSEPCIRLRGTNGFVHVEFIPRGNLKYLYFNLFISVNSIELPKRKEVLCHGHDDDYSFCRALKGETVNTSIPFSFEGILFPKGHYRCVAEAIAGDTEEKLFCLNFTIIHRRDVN
T1 sequence (O00206 24-839): as the sequence (O00206 24-839) above
T1 sequence (Q9Y6Y9 19-160): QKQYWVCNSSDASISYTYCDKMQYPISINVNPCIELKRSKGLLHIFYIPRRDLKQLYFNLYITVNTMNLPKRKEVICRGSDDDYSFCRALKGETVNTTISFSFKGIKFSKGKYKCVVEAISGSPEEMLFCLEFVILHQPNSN

## CCCCCCCCCCCC(CC(=O)NC(COC1OC(CO)C(OP(=O)(O)O)C(OC(=O)CC(CCCCCCCCCCC)OC(=O)CCCCCCCCC)C1NC(=O)CC(CCCCCCCCCCC)OC(=O)CCCCCCCCC)C(=O)O)OC(=O)CCCCCCCCC.CCN(CC)CC (stereo not shown) [CRX-527]
Human TLR4, MD-2, CD14
  NF-κB promoter/reporter activation: significantly higher activation
PBMCs from BALB/c mice
  MyD88 cytokine levels: similar
[1]; high dose
  injection site histopathology (myositis): most consistent and greatest
  hematology: granulocytosis: trend of granulocytosis
[1]
  gross pathology: white discoloration of muscle along needle track and at site of injection: seen
  overall impression of toxicity: mildly toxic
[1]; low dose
  hematology: granulocytosis: trend of granulocytosis
[2]
  MyD88-dependent cytokine/chemokine gene expression: greater
  TRIF-dependent cytokine/chemokine gene expression: greater
  time of highest IFNβ gene induction: 1 h
MM6 cells
  IRAK-4: rapid decrease; also recorded: greater degradation
  total IκBα: rapid decrease
  TRIF-mediated signaling proteins (phospho-p38, total p38, IRF3, phospho-IRF3): little or difference
MM6 cells; compared to CRX-547
  phosphorylation state of p38: slight increase
THP-1 cells; [6]
  induction of MyD88-dependent cytokine (TNFα) when MyD88 signaling is inhibited: significantly reduced
  induction of TRIF-dependent cytokine RANTES when MyD88 signaling is inhibited: only slightly reduced
THP-1 cells
  induction of TRIF-dependent cytokines when TRIF is knocked down: reduced to a similar extent
[3]
  induction of promoter activity, CRX-527 versus CRX-547: large relative difference
[4]; four hours of stimulation
  potency for IP-10 production: slightly more potent
  potency for TNFα production: slightly more potent
[4]; wider dose range
  potency for IP-10 production: more potent
  potency for TNFα production: more potent
[5]
  TRIF-dependent RANTES induction under inhibition of endocytosis: inhibits
  MyD88-dependent MIP-1α induction under inhibition of endocytosis: increases slightly

## CCCCCCCCCCCC(CC(=O)NC(COC1OC(CO)C(OP(=O)(O)O)C(OC(=O)CC(CCCCCCCCCCC)OC(=O)CCCCCCCCC)C1NC(=O)CC(CCCCCCCCCCC)OC(=O)CCCCCCCCC)C(=O)O)OC(=O)CCCCCCCCC.CCN(CC)CC (stereo not shown) [CRX-547]
Human TLR4, MD-2, CD14
  NF-κB promoter/reporter activation: less NFκB reporter activity
PBMCs from BALB/c mice
  MyD88 cytokine levels: similar
[1]; low dose
  injection site histopathology (myositis): no muscle pathology
[1]
  gross pathology: white discoloration of muscle along needle track and at site of injection: not
  overall impression of toxicity: minimally toxic
[2]
  time of highest IFNβ gene induction: 1 h
MM6 cells
  IRAK-4: delayed and less degradation
  total IκBα: delayed and less degradation
  TRIF-mediated signaling proteins (phospho-p38, total p38, IRF3, phospho-IRF3): little or difference
THP-1 cells; [6]
  induction of MyD88-dependent cytokine (TNFα) when MyD88 signaling is inhibited: unaffected
THP-1 cells
  induction of TRIF-dependent cytokines when TRIF is knocked down: reduced to a similar extent
[3]
  induction of promoter activity, CRX-527 versus CRX-547: large relative difference
[4]; wider dose range
  potency for IP-10 production: less potent
  potency for TNFα production: less potent
[5]
  TRIF-dependent RANTES induction under inhibition of endocytosis: inhibits
  MyD88-dependent MIP-1α induction under inhibition of endocytosis: increases slightly
